Paper PMC9532951, “Identification and characterization of a novel SNAT2 (SLC38A2) inhibitor reveals synergy with glucose transport inhibition in cancer cells” (Frontiers in Pharmacology, 2022)

Assays:
B0AT1 (SLC6A19) = target: T1, B0AT1 (SLC6A19) (Homo sapiens, UniProt Q695T7); experiment: Leucine uptake in CHO cells stably expressing human B0AT1 and collectrin; type: cell-based; details: 150 µM leucine, hit compounds at 30 µM, n = 3
T1 construct: expressed in transfected cells
T1 sequence (Q695T7 1-634): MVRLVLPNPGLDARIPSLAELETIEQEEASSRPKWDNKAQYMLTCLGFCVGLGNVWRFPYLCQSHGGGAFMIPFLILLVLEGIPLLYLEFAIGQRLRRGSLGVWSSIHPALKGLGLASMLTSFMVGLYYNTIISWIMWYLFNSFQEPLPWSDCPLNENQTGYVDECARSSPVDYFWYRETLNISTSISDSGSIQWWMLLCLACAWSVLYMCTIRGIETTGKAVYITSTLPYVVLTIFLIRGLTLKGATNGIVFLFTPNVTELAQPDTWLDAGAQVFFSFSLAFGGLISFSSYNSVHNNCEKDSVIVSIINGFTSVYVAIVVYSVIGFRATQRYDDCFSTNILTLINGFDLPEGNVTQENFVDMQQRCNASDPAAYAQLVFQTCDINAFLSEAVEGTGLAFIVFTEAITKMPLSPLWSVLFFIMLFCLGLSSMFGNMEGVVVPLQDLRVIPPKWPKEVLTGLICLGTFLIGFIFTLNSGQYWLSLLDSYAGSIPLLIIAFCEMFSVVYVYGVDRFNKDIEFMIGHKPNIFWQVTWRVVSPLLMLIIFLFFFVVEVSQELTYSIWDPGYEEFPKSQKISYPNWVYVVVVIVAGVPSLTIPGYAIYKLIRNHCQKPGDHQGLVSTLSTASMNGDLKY
T1 sequence (Q9HBJ8 15-222 partner): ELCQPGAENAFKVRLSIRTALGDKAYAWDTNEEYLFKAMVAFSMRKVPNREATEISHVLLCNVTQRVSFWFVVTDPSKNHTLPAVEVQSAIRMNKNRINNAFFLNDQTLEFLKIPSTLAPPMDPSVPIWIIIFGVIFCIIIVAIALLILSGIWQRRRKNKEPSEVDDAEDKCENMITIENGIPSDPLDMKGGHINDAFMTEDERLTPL

HCC1806 cells = experiment: [14C]alanine uptake in non-depleted HCC1806 cells; type: cell-based, human; details: amino acid replete HCC1806 cells
Description: Functional characterisation of plasma membrane transporters in human cancer cells was determined at 37°C using an array of radiolabelled amino acid substrates. Modified Hanks HEPES-buffered salts solution (mHBSS; 137 mM NaCl; 5.4 mM KCl; 2.7 mM K2HPO4; 1 mM CaCl2; 0.5 mM MgCl2; 0.44 mM KH2PO4; 0.4 mM MgSO4; 5 mM D-glucose; 5 mM HEPES; pH 7.4) was used to wash and incubate cells where sodium dependent transport was measured, while N-methyl-D-glucamine (NMDG) and potassium salts substituted sodium in NMDG mHBSS to measure sodium independent uptake. For the assay, cells were seeded in 35 mm dishes and, once confluent, were washed thrice with warm mHBSS solution and incubated with mHBSS containing an 100 µM amino acid at a final specific activity of ≥2000 cpm/nmol (U-[^14C]amino acids were from PerkinElmer). After 6 min, cells were washed thrice with ice-cold mHBSS, lysed with 500 µl of 0.1 M HCl, detached with a cell scraper and triturated. A 400 µl aliquot was used for scintillation counting, while the remainder was saved for protein mass quantification by Bradford assay. Transport rates were normalised to the protein content of the culture dish.

SNAT1 and SNAT2 = experiment: High-throughput compound screen, FMP assay in 384-well format (primary, confirmatory, control compounds); type: cell-based, human; details: 10 mM, 1 mM glutamine
Description: For the high-throughput compound screen, the FMP assay was adapted into a 384-well format within the ANU Centre for Therapeutic Discovery. […] Compounds Australia stores compounds under robust environmental conditions and supplies them in assay ready plate format. We screened 33,934 compounds from the Collection Scaffold Library. Cells (10,000/well) were seeded into Corning 384-well black walled plates (CLS3985; Sigma-Aldrich) using a Multidrop Combi liquid dispensing robot (Thermo Fisher) in a 40 µl volume. Once seeded, cells were allowed to grow in a microplate incubator (Liconic) for 24 h at 37°C (humidified atmosphere with 95% air and 5% CO2). Subsequently, plates were washed thrice with 50 µL of mHBSS using a 405 TS washer (BioTek). Then, 50 µl of starvation medium was added and cells were incubated again for 24 h.
Assay-ready compound plates (384 well plates containing compound or DMSO controls) were then prepared prior to addition to cells. In addition to the supplied compounds, 5 µl γ-glutamyl-hydroxamate (GHX, 60 mM dissolved in mHBSS, serving as an inhibitor control) was added into inhibitor control wells using a JANUS G3 robot (PerkinElmer). Subsequently, 25 uL of mHBSS was dispensed into all wells of the 384 well plate using a Multidrop Combi. All samples were then mixed using the JANUS G3 robot and 15 µl dispensed on top of the cell monolayer to reach a final concentration of 10.05 µM.
The FMP dye was solved freshly with mHBSS, 20 µl of which was deposited into each well using the Multidrop Combi, and the cells were incubated at room temperatur for 30 min. Each plate was then placed in an EnVision microplate reader (PerkinElmer) and a single baseline measurement was taken for each well (bottom reads excitation at 531, emission at 579 nm). The plate was then transferred to the Multidrop Combi and 10 µl/well of 5 mM glutamine was dispensed into each well. After linearly shaking for 5 s, microplates were returned to the EnVision microplate reader for a single post-injection measurement per well. The change of fluorescence was measured after 60 s.
Z′ scores were calculated from the controls onboard each of the 384-well plates assayed in the primary and secondary screen as described by Zhang et al., ([Zhang et al., 1999]). For the control inhibitor γ-glutamyl-hydroxamate (GHX) a Z’ score of 0.717 was determined, which was a sufficient signal for a HTS.

Compound	influence on FMP signal (SNAT1 and SNAT2)	other results
CCNC(=O)/C=C/c1cccc(Br)c1 [Cinromide]	–	Leucine uptake, Mean (B0AT1 (SLC6A19)): 19.8324 nmol / mg protein x 6 min
N[C@@H](CCC(=O)Nc1ccc([N+](=O)[O-])cc1)C(=O)O [GPNA, γ-glutamyl-p-nitroanilide]	–	inhibition of alanine transport (HCC1806 cells): inhibited a large fraction of alanine transport
OC[C@H]1OC(O)[C@H](O)[C@@H](O)[C@@H]1O (stereo partly shown) [glucose]	did not influence the signal	–
CC(=O)C(=O)O [pyruvate]	did not influence the signal	–
